# Experimental data as given in patent publication US8252764B2, “Compositions and methods of use of targeting peptides against placenta and adipose tissues” (priority 2000, dated 2012).
# How the values were obtained:
# endothelial cells = test: Endothelial cell migration (chemotaxis) assay with penetratin peptide chimeras; assay type: cell-based, human; conditions: 48-well microchemotaxis chamber
# Experimental: FIG. 25. Effect of penetratin peptide chimeras on endothelial cell migration. Cell migration assay were performed, in a 48-well microchemotaxis chamber. Five random high-power fields (magnitude 40×) were counted in each well.
# Cell migration assays were performed as follows: 48-well microchemotaxis chambers were used. Polyvinylpyrrolidone-free polycarbonate filters (Nucleopore, Cambridge, Mass.) with 8-μm pores were coated with 1% gelatin for 10 min at room temperature and equilibrated in M199 medium supplemented with 2% FCS. Peptides were placed in the lower compartment of a Boyden chamber in M199 supplemented with 2% FCS, 20 ng/ml VEGF-A (R&D System), and 1 U/ml heparin. Overnight-starved subconfluent cultures were quickly trypsinized, and resuspended in M199 containing 2% FCS at a final concentration of 2×10^6 cells/ml. After the filter was placed between lower and upper chambers, 50 μl of the cell suspension was seeded in the upper compartment. Cells were allowed to migrate for 5 h at 37° C. in a humidified atmosphere with 5% CO2. The filter was then removed, and cells on the upper side were scraped with a rubber policeman. […] Five random high-power fields (magnitude 40×) were counted in each well.
# Cell migration was assayed in a 48-well microchemotaxis chamber. […] Five random high-power fields (magnitude 40×) were counted in each well.
# [1] = molecular target: T1, β3 integrin cytoplasmic domain (Homo sapiens, UniProt P05106); test: Phage binding to immobilized GST-β3cyto
# T1 sequence (P05106 742-788 limits assumed): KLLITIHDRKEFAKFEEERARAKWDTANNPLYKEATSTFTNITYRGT
# Experimental: FIG. 18. Binding of β3 cytoplasmic domain-selected phage to immobilized proteins. GST fusion proteins or GST alone were coated on microtiter wells at 10 μg/ml and used to bind phage-expressing endostatin targeting peptides. […] The data represent the mean colony counts from triplicate wells, with standard error of less than 10% of the mean.
# β3 and β5 cytoplasmic domain-binding peptides were isolated by screening multiple phage libraries with recombinant GST fusion proteins that contained either GST-β3cyto or GST-β5cyto coated onto microtiter wells. Immobilized GST was used as a negative control for enrichment during the panning of each cytoplasmic domain. Phage were sequenced from randomly selected clones after three rounds of panning as disclosed elsewhere (Koivunen et al., Biotechnology 13:265-270, 1995; Pasqualini et al., 1995). Distinct sequences were isolated that interacted specifically with the β3 or with the β5 cytoplasmic domains (Table 4). Randomly selected clones from panning rounds II and III were sequenced. […] The ratios were calculated by dividing the number of colonies recovered from β3-GST-coated wells and those recovered from GST or BSA.
# The specificity of the interaction with β3 or β5 cytoplasmic domains was determined by calculating the ratios of phage bound to the cytoplasmic domain containing-fusion proteins (β3 or β5) versus GST alone (negative control). […]
# [2] = molecular target: T2, β5 integrin cytoplasmic domain (Homo sapiens, UniProt P18084); test: Phage binding to immobilized GST-β5cyto; conditions: phage colonies
# T2 construct: screenings involving the β5 cytoplasmic domain fusion protein
# T2 sequence (P18084 743-799 limits assumed): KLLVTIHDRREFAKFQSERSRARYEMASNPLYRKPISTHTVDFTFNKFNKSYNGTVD
# Experimental: FIG. 19. Binding of β5 cytoplasmic domain-selected phage to immobilized proteins. GST fusion proteins or GST alone were coated on microtiter wells at 10 μg/ml and used to bind phage-expressing endostatin binding peptides. […] The data represent the mean colony counts from triplicate wells, with standard error less than 10% of the mean.
# β3 and β5 cytoplasmic domain-binding peptides were isolated by screening multiple phage libraries with recombinant GST fusion proteins that contained either GST-β3cyto or GST-β5cyto coated onto microtiter wells. Immobilized GST was used as a negative control for enrichment during the panning of each cytoplasmic domain. Phage were sequenced from randomly selected clones after three rounds of panning as disclosed elsewhere (Koivunen et al., Biotechnology 13:265-270, 1995; Pasqualini et al., 1995). Distinct sequences were isolated that interacted specifically with the β3 or with the β5 cytoplasmic domains (Table 4). Randomly selected clones from panning rounds II and III were sequenced. Amino acid sequences of the phagemid encoded peptides were deduced from nucleotide sequences. The ratios were calculated by dividing the number of colonies recovered from β3-GST-coated wells and those recovered from GST or BSA.
# A similar strategy was used to determine the specificity of the phage isolated in the screenings involving the β5 cytoplasmic domain fusion protein.
# HUVECs [3] = test: HUVEC chemotaxis assay (Boyden chamber); assay type: cell-based, human; conditions: HUVECs, VEGF-A, not shown
# Experimental: FIG. 33. […] (SEQ ID NO:56) inhibits HUVEC migration. HUVECs were stimulated with VEGF-A (10 ng/ml). The assay was performed in a Boyden microchemotaxis chamber, and cells were allowed to migrate through an 8-μm pore filter for 5 h at 37° C. […] (SEQ ID NO:57) (control) and […] (SEQ ID NO:56) peptides were tested at 1 mM concentration. Migrated cells were stained and five high-power fields (magnitude 100×) for each microwell were counted. Error bars are the standard error of the means of triplicate microwells.
# A cell migration assay was performed in a 48-well microchemotaxis chamber (NeuroProbe, Gaithersburg, Md.) according to Bussolini et al. (1995). Polyvinylpyrrolidone-free polycarbonate filters (Nucleopore, Cambridge, Mass.) with 8-μm pores were coated with 1% gelatin for 10 min at room temperature and equilibrated in M199 medium supplemented with 2% FCS. […] (SEQ ID NO:56) or control […] (SEQ ID NO:57) peptide (1 mM) was placed in the lower compartment of a Boyden chamber in M199 medium supplemented with 2% FCS and 10 ng/ml VEGF-A (R&D System). Subconfluent cultures that had been starved overnight were harvested in PBS containing 2.5 mM EDTA, washed once in PBS, and resuspended in M199 medium containing 2% FCS at a final concentration of 2×10^6 cells/ml. […] Five random high-power fields (magnitude 100×) were counted in each well. […]
# SK-RC-49/APA cells = test: Phage binding specificity assay on SK-RC-49/APA cells; assay type: cell-based; conditions: soluble peptide, not shown
# Experimental: The cell binding assay was performed with an input of 10^9 TU as described for the cell panning. The specificity was confirmed by adding […] (SEQ ID NO:56) peptide to the binding medium in increasing concentrations. For phage binding on immunocaptured APA, wells were blocked for 1 h at room temperature with PBS/3% BSA and incubated with 10^9 TU for 1 h at room temperature in 50 μl PBS/3% BSA. After eight washes in PBS/1% BSA/0.01% Tween-20 and two washes in PBS, phage were rescued by adding 200 μl of exponentially growing K91Kan E. coli. Each experiment was repeated at least three times.
# [4] = system: chicken chorioallantoic membrane (CAM); test: CAM assay for angiogenesis; assay type: in vivo
# Experimental: In vivo angiogenesis was evaluated by a CAM assay (Ribatti et al., 1994). Fertilized eggs from White Leghorn chickens were maintained in constant humidity at 37° C. On the third day of incubation, a square window was opened in the eggshell and 2-3 ml of albumen was removed to detach the developing CAM from the shell. The window was sealed with a glass plate of the same size and the eggs were returned to the incubator. At day 8, 1 mm^3 sterilized gelatin sponges (Gelfoam, Upjohn Co, Kalamazoo, […]) were adsorbed with VEGF-A (20 ng, R&D System) and either […] (SEQ ID NO:56) or control […] (SEQ ID NO:57) peptide (1 mM) in 3 μl PBS and implanted on the top of the growing CAMs under sterile conditions. CAMs were examined daily until day 12 and photographed in ovo with a Leica stereomicroscope. Capillaries emerging from the sponge were counted. The assay was repeated twice.
# HUVECs [5] = test: Three-dimensional cell culture on Matrigel; assay type: cell-based, human; conditions: HUVECs on three-dimensional matrix gel, not shown
# Experimental: Matrigel (Collaborative Research, Bedford, Mass.) was added at 100 μl per well to 48-well tissue culture plates and allowed to solidify for 10 min at 37° C. HUVECs were starved for 24 h in M199 medium supplemented with 2% FCS before being harvested in PBS containing 2.5 mM EDTA. 10^4 cells were gently added to each of the triplicate wells and allowed to adhere to the gel coating for 30 min at 37° C. Then, medium was replaced with indicated concentrations of […] (SEQ ID NO:56) or […] (SEQ ID NO:57) peptides in complete medium. The plates were photographed after 24 h with an inverted microscope (Canon). The assay was repeated three times.
sequence,measurement,setting,value
SDNRYIGSW,effect on endothelial cell migration,endothelial cells,increase cell migration
GLDTYRGSP,effect on endothelial cell migration,endothelial cells,increase cell migration
AGWLYMSWK,β3/BSA Ratio,[1]; phage colonies recovered from β3-GST-coated wells divided by BSA,2.4
same,β3/GST Ratio,[1]; phage colonies recovered from β3-GST-coated wells divided by GST,1.8
CKLWQEDGY,β5/BSA Ratio,[2]; β5 versus BSA,665
same,β5/GST Ratio,[2]; β5 versus GST,1.8
GACVRLSACGA [reference compound],effect on cell migration or proliferation,HUVECs [3],no significant effect on cell migration or proliferation
same,competition with CPKVCPRECESNC phage for binding to SK-RC-49/APA cells,SK-RC-49/APA cells,no competitive activity
same,BLOOD VESSEL NUMBERS,"[4]; VEGF-A 20 ng, peptide 1 mM, mean and standard error, two experiments",56.5 ± 2.12
same,effect on the number of growing vessels,[4]; not shown,no effect on the number of growing vessels
same,formation of capillary-like network,HUVECs [5],did not affect HUVEC morphogenesis
